Measurements reported in patent publication US20250318524A1, “ANTIMICROBIAL COATING COMPOSITION AND METHOD OF USE THEREOF” (priority 2024, published 2025).

Test: Selection of antimicrobial agents: solubility in aqueous solution, stability, compatibility with the coating composition

For N=C(NCCCCCCNC(=N)NC(=N)Nc1ccc(Cl)cc1)NC(=N)Nc1ccc(Cl)cc1.O=C(O)[C@H](O)[C@@H](O)[C@H](O)[C@H](O)CO.O=C(O)[C@H](O)[C@@H](O)[C@H](O)[C@H](O)CO [Chlorhexidine gluconate, chlorhexidine gluconate], which solubility in water is on record?
The solubility in water was “good water solubility”.

With polyhexamethylene biguanide [PHMB] as the compound, how does the solubility in water read?
The solubility in water was “good water solubility”.
